The subject of assay [1] is Rattus norvegicus. Kind of assay: Antiarthritic activity in type 2 collagen-induced po dosed Lewis rat arthritis model assessed as reduction in bone resorption in knee administered every 12 hrs for 16 days measured on day 17 of post last dose by toluidine blue staining-based assay. It counts as functional, organism-based.
Assay [2] has as its system Rattus norvegicus. Kind of assay: Antiarthritic activity in type 2 collagen-induced po dosed Lewis rat arthritis model assessed as reduction in cartilage damage in knee administered every 12 hrs for 16 days measured on day 17 of post last dose by toluidine blue staining-based assay. It counts as functional, organism-based.
For assay [3], the system named is Rattus norvegicus. Kind of assay: Antiarthritic activity in type 2 collagen-induced po dosed Lewis rat arthritis model assessed as reduction in knee inflammation administered every 12 hrs for 16 days measured on day 17 of post last dose by toluidine blue staining-based assay. It counts as functional, organism-based.
Assay [4] deals with Rattus norvegicus. In words: Antiarthritic activity in type 2 collagen-induced Lewis rat arthritis model assessed as reduction in serum anti-type 2 collagen levels at 60 mg/kg, po administered every 12 hrs for 16 days measured on day 17 of post last dose by ELISA relative to control. On the set-up: scale not given: the % may be the effect or the level left. It counts as functional. Background: In an ELISA, binding on a coated surface is turned into a signal by an enzyme label.

Assay [5] concerns the target PI3K p110 beta/p85 alpha (Homo sapiens, UniProt P42338). In words: Inhibition of N-terminal His6-tagged recombinant full-length human p110beta/untagged recombinant full length p85alpha expressed in baculovirus infected Sf21 cells using phosphatidylinositol as substrate in presence of gamma-32P-ATP after 5 mins by thin layer chromatographic method.
Assay [6] relates to Rattus norvegicus. In words: Antiarthritic activity in type 2 collagen-induced po dosed Lewis rat arthritis model assessed as reduction in knee pannus administered every 12 hrs for 16 days measured on day 17 of post last dose by toluidine blue staining-based assay. Format: functional, organism-based.
Assay [7] relates to Rattus norvegicus. Kind of assay: Antiarthritic activity in type 2 collagen-induced Lewis rat arthritis model assessed as reduction in ankle diameter at 10 to 60 mg/kg, po administered every 12 hrs for 16 days measured on day 9 of compound dosing to day 17 of post last dose relative to vehicle-treated control. It counts as functional, organism-based.
Assay [8] is filed under the species Homo sapiens. Kind of assay: Inhibition of allergen-induced activation of basophilic granulocytes in human whole blood preincubated for 20 mins followed by allergen induction measured after 20 mins using sub micromolar range of compound by basotest assay. It counts as functional, tissue-based.
The target of assay [9] is PI3-kinase p110-delta/p85-alpha (Homo sapiens, UniProt O00329). In words: Inhibition of N-terminal His6-tagged recombinant full-length human p110delta/untagged recombinant full length p85alpha expressed in baculovirus infected Sf21 cells using phosphatidylinositol as substrate in presence of gamma-32P-ATP after 5 mins by thin layer chromatographic method.
For assay [10], the target named is PI3-kinase p110-alpha/p85-alpha (Homo sapiens, UniProt P42336). In words: Inhibition of N-terminal His6-tagged recombinant full-length human p110alpha/untagged recombinant full length human p85alpha expressed in baculovirus infected Sf21 cells using phosphatidylinositol as substrate in presence of gamma-32P-ATP after 5 mins by thin layer chromatographic method.

Assay [11] concerns the target Phosphatidylinositol 4,5-bisphosphate 3-kinase catalytic subunit gamma isoform (Homo sapiens, UniProt P48736). Kind of assay: Inhibition of recombinant human C-terminal His6-tagged p110gamma expressed in insect cells using phosphatidylinositol as substrate in presence of gamma-32P-ATP after 5 mins by thin layer chromatographic method.
Assay [12] can be described thus: Antiproliferative activity against Balb/c mouse splenic B cells preincubated for 30 mins followed by LPS or F(ab')2 donkey anti-mouse IgM and recombinant mouse IL4 stimulation measured after 72 hrs by Alamar Blue reduction assay. It counts as functional, cell-based.
Assay [13] addresses RAC-alpha serine/threonine-protein kinase (Mus musculus) (UniProt P31750). Kind of assay: […] of anti-CD3-stimulated Akt phosphorylation in mouse unfractionated splenocytes preincubated for 15 mins followed by anti-CD3 stimulation measured after 5 to 15 mins by phosflow method. It counts as cell-based.
Assay [14] addresses Phosphatidylinositol 3-kinase (Mus musculus) (UniProt P26450+P42337). In words: Inhibition of PI3K in mouse unfractionated splenocytes assessed as decrease in anti-CD3-stimulated Akt phosphorylation at S473 preincubated for 15 mins followed by anti-CD3 stimulation measured after 5 to 15 mins by phosflow method. Format: cell-based.
Assay [15] addresses PI3-kinase class I (Homo sapiens) (UniProt P27986+P42338+P48736+P42336+O00459+O00329+Q8WYR1+Q92569). Kind of assay: Inhibition of PI3K in human PBMC assessed as decrease in anti-CD3-stimulated Akt phosphorylation at S473 preincubated for 15 mins followed by anti-CD3 stimulation measured after 5 to 15 mins by phosflow method.
Assay [16] has as its target RAC-alpha serine/threonine-protein kinase (Homo sapiens) (UniProt P31749). Kind of assay: […] of anti-CD3-stimulated Akt phosphorylation in human PBMC preincubated for 15 mins followed by anti-CD3 stimulation measured after 5 to 15 mins by phosflow method.

Active and inactive are the calls of the source. The rule behind the calls is not given here.

PI3K p110 beta/p85 alpha, sequence (P27986 whole entry): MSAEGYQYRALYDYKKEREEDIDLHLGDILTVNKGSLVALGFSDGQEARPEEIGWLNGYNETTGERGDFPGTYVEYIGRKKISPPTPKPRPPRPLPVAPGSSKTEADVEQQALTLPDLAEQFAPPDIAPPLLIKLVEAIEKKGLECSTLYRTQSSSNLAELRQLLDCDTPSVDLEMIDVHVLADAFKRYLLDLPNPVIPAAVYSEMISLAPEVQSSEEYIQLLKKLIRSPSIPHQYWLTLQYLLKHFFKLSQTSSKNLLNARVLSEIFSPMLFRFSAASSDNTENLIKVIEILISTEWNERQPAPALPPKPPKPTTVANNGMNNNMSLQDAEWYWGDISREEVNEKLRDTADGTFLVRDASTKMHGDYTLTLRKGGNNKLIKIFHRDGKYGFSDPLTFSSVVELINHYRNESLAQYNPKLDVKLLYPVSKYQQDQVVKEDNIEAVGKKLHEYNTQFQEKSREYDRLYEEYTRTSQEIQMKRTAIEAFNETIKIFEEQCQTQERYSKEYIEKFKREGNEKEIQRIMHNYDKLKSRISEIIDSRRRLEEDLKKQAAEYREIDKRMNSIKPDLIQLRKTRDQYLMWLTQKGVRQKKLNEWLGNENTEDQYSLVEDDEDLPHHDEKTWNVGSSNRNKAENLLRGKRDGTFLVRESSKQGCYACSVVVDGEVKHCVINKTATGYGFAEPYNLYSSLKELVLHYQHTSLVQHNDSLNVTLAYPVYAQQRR
PI3K p110 beta/p85 alpha, sequence (P42338 whole entry): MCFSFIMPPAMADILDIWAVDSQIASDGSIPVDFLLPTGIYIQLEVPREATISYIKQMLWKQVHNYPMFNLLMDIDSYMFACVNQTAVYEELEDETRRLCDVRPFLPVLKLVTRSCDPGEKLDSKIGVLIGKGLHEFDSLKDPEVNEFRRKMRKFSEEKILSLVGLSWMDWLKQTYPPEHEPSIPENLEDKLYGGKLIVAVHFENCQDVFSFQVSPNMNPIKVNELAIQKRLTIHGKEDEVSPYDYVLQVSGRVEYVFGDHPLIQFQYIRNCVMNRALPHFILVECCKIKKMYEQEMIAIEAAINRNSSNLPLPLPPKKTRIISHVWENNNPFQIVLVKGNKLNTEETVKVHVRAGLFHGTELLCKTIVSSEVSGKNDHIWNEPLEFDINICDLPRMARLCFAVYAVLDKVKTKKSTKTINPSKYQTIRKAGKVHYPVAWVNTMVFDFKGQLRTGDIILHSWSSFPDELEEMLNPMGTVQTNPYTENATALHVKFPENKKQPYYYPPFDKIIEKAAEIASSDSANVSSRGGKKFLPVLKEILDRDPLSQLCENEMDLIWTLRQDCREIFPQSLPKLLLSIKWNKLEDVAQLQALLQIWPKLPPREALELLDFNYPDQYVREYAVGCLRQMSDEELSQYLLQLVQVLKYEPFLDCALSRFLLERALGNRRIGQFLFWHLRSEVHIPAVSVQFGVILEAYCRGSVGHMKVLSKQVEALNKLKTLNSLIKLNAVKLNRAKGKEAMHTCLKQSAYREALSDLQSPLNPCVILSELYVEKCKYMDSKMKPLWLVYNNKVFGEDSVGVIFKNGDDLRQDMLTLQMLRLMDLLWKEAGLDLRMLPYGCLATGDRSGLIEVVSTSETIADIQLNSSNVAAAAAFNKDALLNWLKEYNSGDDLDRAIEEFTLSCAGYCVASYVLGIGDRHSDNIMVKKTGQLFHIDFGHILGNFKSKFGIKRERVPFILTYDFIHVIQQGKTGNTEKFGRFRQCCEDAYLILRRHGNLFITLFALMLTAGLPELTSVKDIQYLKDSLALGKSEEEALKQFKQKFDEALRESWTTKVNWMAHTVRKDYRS
PI3-kinase p110-delta/p85-alpha, sequence (P27986 whole entry): as the sequence (P27986 whole entry) above
PI3-kinase p110-delta/p85-alpha, sequence (O00329 whole entry): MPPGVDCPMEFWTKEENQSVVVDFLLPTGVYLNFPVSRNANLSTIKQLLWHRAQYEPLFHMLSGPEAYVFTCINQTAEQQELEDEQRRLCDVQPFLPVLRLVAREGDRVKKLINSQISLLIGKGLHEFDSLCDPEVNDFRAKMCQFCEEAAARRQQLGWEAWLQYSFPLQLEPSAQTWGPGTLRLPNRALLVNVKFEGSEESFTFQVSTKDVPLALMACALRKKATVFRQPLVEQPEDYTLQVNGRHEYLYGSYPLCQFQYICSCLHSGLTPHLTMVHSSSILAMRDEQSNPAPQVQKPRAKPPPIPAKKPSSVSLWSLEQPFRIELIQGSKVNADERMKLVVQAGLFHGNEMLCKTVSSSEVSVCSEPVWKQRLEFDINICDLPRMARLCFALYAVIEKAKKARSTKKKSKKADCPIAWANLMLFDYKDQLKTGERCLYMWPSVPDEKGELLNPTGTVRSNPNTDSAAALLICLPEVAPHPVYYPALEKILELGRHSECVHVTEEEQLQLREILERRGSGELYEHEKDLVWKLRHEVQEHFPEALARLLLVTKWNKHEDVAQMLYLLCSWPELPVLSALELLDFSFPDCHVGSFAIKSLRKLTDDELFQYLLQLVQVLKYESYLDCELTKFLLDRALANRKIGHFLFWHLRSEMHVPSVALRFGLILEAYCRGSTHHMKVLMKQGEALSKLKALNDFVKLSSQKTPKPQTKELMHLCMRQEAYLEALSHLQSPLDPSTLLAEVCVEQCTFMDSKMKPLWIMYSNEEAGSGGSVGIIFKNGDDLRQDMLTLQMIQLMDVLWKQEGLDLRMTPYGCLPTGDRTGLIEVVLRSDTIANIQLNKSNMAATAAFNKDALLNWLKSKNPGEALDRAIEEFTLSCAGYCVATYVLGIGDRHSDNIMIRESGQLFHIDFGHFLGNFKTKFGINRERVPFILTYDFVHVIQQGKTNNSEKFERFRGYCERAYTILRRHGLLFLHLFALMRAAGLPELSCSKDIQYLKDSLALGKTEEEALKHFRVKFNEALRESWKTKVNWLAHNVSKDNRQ
PI3-kinase p110-alpha/p85-alpha, sequence (P27986 whole entry): as the sequence (P27986 whole entry) above
PI3-kinase p110-alpha/p85-alpha, sequence (P42336 whole entry): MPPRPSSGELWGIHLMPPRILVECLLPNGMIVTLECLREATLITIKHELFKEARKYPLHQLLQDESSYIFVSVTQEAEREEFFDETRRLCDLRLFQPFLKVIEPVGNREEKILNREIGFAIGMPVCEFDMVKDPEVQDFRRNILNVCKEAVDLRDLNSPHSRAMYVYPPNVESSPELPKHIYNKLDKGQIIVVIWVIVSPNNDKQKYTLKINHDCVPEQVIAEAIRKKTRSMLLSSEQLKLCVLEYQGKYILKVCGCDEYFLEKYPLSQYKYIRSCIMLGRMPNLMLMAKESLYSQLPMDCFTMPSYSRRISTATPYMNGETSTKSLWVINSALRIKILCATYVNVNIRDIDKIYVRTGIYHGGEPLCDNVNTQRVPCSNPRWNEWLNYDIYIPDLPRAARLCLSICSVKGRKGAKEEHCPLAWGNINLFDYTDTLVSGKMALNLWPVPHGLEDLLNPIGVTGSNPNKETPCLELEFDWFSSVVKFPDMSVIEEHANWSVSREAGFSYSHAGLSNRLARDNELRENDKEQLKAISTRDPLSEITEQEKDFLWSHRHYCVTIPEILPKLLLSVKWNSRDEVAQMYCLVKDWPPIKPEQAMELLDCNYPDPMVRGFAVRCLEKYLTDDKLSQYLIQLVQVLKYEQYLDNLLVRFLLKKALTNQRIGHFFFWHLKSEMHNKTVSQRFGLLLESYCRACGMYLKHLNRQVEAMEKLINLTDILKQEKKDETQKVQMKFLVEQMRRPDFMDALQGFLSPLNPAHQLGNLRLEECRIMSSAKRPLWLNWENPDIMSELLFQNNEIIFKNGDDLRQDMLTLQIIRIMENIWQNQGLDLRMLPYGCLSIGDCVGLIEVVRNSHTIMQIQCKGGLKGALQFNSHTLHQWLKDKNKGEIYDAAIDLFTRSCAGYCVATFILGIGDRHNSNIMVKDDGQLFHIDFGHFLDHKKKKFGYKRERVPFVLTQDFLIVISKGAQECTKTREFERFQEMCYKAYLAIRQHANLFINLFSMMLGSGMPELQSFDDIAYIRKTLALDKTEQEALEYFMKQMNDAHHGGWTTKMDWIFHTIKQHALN
Phosphatidylinositol 4,5-bisphosphate 3-kinase catalytic subunit gamma isoform, sequence (P48736 whole entry, canonical isoform): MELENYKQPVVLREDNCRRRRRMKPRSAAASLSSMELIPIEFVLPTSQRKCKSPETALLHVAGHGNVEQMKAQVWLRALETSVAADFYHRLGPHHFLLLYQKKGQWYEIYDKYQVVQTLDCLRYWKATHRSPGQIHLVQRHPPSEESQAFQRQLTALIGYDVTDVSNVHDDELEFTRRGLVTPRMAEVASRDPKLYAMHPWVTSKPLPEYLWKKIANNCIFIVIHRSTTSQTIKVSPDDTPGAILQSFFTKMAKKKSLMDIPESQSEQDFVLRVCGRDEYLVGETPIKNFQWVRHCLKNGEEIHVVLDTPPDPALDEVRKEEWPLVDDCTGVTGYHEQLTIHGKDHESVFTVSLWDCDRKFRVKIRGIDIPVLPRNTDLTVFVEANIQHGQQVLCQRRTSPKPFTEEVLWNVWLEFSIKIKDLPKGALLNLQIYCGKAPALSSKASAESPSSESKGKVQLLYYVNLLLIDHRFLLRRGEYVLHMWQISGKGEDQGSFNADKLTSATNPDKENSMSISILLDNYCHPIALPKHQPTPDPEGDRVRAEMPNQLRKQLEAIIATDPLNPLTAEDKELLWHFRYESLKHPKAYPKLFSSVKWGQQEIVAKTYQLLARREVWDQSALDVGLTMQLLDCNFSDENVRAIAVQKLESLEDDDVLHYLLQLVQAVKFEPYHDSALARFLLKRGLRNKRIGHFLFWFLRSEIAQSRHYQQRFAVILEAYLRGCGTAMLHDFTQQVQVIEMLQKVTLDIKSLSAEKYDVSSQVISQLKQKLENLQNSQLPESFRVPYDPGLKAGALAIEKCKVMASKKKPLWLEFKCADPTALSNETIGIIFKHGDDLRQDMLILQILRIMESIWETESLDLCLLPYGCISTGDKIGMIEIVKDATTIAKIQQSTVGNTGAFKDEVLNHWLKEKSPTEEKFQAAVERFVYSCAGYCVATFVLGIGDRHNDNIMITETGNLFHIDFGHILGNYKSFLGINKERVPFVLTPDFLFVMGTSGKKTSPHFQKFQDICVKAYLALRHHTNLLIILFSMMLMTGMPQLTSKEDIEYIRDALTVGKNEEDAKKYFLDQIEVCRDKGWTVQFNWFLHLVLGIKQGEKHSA

On to `Cc1ccccc1-n1c(Cn2nc(-c3cc(O)cc(F)c3)c3c(N)ncnc32)cc2cccc(C)c2c1=O`, for which the Activity entry is “Dose-dependent effect” in assay [1]; “Dose-dependent effect” in assay [2]; “Dose-dependent effect” in assay [3]; 24% in assay [4]; “Dose-dependent effect” in assay [6]. The IC50 in assay [5] was less than 1 µM. In [7], the outcome was Active. In addition, the inhibition result in assay [8] was “Active”.

For `Cc1ccccc1-n1c(Cn2nc(-c3ccc(F)cc3)c3c(N)ncnc32)cc2cccc(C)c2c1=O`, the IC50 in [9] was less than 10 µM; in [10], more than 10 µM; in [11], less than 1 µM; in assay [5], more than 10 µM. Also, the concentration giving a half-maximal response (EC50) in assay [12] was less than 10 µM.

With `Cc1cccnc1-n1c(Cn2nc(C#C[C@@H](C)O)c3c(N)ncnc32)cc2cccc(C)c2c1=O`, the 50% inhibitory concentration (IC50) in assay [9] was less than 1 µM; in assay [10], more than 10 µM; in assay [11], more than 10 µM; in [5], more than 10 µM. Besides, the concentration giving a half-maximal response (EC50) in [12] was less than 1 µM.

For the compound `CO[C@H]1C[C@@H]2CC[C@@H](C)[C@@](O)(O2)C(=O)C(=O)N2CCCC[C@H]2C(=O)O[C@H]([C@H](C)C[C@@H]2CC[C@@H](O)[C@H](OC)C2)CC(=O)[C@H](C)/C=C(\C)[C@@H](O)[C@@H](OC)C(=O)[C@H](C)C[C@H](C)/C=C/C=C/C=C/1C`, the result in assay [13] and in assay [16] was Active. Also, the inhibition result in assay [14] and in [15] was “Active” in each case.

One may read the IC50 as the concentration that gives 50% inhibition. As a reminder, the EC50 is the concentration at which the effect is half-maximal.

For the origin of these results see ChEMBL document CHEMBL3879901, “Substituted isoquinolin-1(2H)-ones, and methods of use thereof” (2012).
